Assay [1] concerns the target T1, TMPRSS2 (Homo sapiens, UniProt O15393). The assay is described as follows: TMPRSS2 inhibition, IC50 (Table 1). It counts as biochemical. As to conditions: nonlinear regression, variable slope (four parameters).
The target of assay [2] is T2, Recomb. Human Thrombin (Homo sapiens, UniProt P00734).
T2 construct: purchased R&D systems 1473-SE-010
The assay is described as follows: Protease Thrombin inhibition assay, chromogenic substrate D-Phe-Homopro-Arg-pNA. It is filed as biochemical. As to conditions: 30 minutes preincubation at room temperature, 100 µM reference substrate, absorption 405 nm, 25°C. On the procedure:
(§1) Protease Thrombin inhibiton assay - Calculation of IC50 values
Protease: Recomb. Human Thrombin, Bought 30.01.2020; Art. 1473-SE-010; Company: R&D systems Reference substrate: D-Phe-Homopro-Arg-pNA; Company: Bachem; Art no.: 4008145.0050
• Reconstitute at 100 µg/ml (1428.57 nM) in sterile 50 mM HEPES and 640 mM NaCl • Diluted to a stock solution c = 0.04 µg/µl with TNC buffer
(§2) • Dilute and aliquote 2.1 mg of reference substrate to a concentration of c = 2000 µM in TNC. Dilute and aliquote further to a concentration of c = 200 µM in TNC buffer. Endconcentration in well: c = 100 µM.
(§3) • Inhibitor was diluted with pure DMSO to a concentration of 10 mM • This 10 mM stock solution was further diluted:
(§4) • 25 mM Tris, 150 mM NaCl, 5 mM CaCl2, 0,01% Triton X-100, pH = 8 (stored at 8°C)
(§5) • Total volume per well: 100µl • Temperature: 25°C • Kinetic interval: every 2 minutes • Absorption: 405 nm • Number of flashes: 25 • Shaking before measurememt: 3s • Shaking amplitude: 5 mm
(§6) • Per well: add 50 µl of Thrombin/TNC solution (c = 0.04 µg/µl), add 1 µl of inhibitor. • Incubate for 30 minutes at room temperature • After incubation, add […] of c = 200 µM reference substrate Endconcentration of substances per well: c = 100 µM of reference substrate, c = 0.002 µg of […] solution, 1% DMSO
(§7) • Graph pad prism 7 was used to analyze the data. The velocity (change of absorbance over time) was plotted against the concentration. A non linear regression was performed with the following equation: [inhibitor] vs. response - Variable slope (four parameters)

The subject of assay [3] is SARS-CoV2 WT. As to conditions: 2 h.
The subject of assay [4] is pseudotyped particle LV(Luc)-CoV2 in CaCo-2 cells. The settings on record: 2 h.
In assay [5] the target is T3, Recomb. Human Coag. Factor Xa protein (Homo sapiens, UniProt P00742).
T3 construct: purchased Bio-Techne GmbH 1063-SE-010
As to the kind of experiment: Protease Factor Xa inhibition assay, chromogenic substrate Bz-Ile-Glu-Gly-Arg-pNA. It counts as biochemical. The settings on record: 0.35 nM Factor Xa, 200 µM reference substrate, 30 minutes preincubation, absorption 405 nm, 25°C. On the procedure: (§8) Protease Factor Xa inhibiton assay - Calculation of IC50 values
(§9) Recomb. Human Coag. Factor Xa protein, CF: Bought 09.12.2020; Art. 1063-SE-010; Company: Bio-Techne GmbH
(§10) • Reconstitute at 100 µg/ml in sterile 25 mM MES, 150 mM NaCl, 5 mM CaCl2, pH6 • Diluted to a stock solution of 1000 nM with TNC buffer • This stock solution was further diluted with TNC buffer to a concentration of 35 nM and aliquoted. Stored at -20°C. Endconcentration in well: c = 0.35 nM
• Delivered: 5mg. Dilute and aliquote reference substrate to a concentration of 10 mM in pure DMSO. Endconcentration in well: c = 200 µM (= KM for Factor Xa)
as §3, §4, §5
(§11) • Per well: add 97 µl TNC buffer, add 1 µl of c = 35 nM solution of Factor Xa, add 1 µl of inhibitor • Incubate for 30 minutes at room temperature • After incubation, add 1 µl of c = 10 mM reference substrate Endconcentration of substances per well: c = 200 µM of reference substrate, c = 0.35 nM of Factor Xa solution, 2% DMSO
(§12) Graph pad prism 7 was used to analyze the data. The velocity (change of absorbance over time) was plotted against the concentration. A non linear regression was performed with the following equation: [inhibitor] vs. response - Variable slope (four parameters) Table 1. IC50 values of inventive inhibitors with respect to TMPRSS2, thrombin and Factor Xa

Assay [6] concerns the target T1, TMPRSS2. The assay is described as follows: TMPRSS2 inhibition, IC50 (Table 1). It is filed as biochemical. The settings on record: nonlinear regression, variable slope (four parameters). The text has this: Inhibitors were screened against TMPRSS2, thrombin and factor Xa.
The source holds these as a separate data set.

For assay [7], the target named is T2, Recomb. Human Thrombin. As to the kind of experiment: Protease Thrombin inhibition assay, chromogenic substrate D-Phe-Homopro-Arg-pNA. It is filed as biochemical. On the procedure:
as §1, §2, §3, §4, §6, §7

The subject of assay [8] is pseudotyped particle LV(Luc)-CoV2 in CaCo-2 cells. The assay is described as follows: microbe, parasite or virus in culture. It counts as cell-based, SARS-CoV2. As to conditions: Severe acute respiratory syndrome coronavirus 2, 2 h incubation with inhibitor before transduction, luciferase activity at 48 h post transduction.
Assay [9] addresses T3, Recomb. Human Coag. Factor Xa protein. The assay is described as follows: Protease Factor Xa inhibition assay, chromogenic substrate Bz-Ile-Glu-Gly-Arg-pNA. The settings on record: 0.35 nM Factor Xa, 200 µM reference substrate, 30 minutes preincubation, absorption 405 nm, 25°C. It is filed as biochemical. On the procedure:
as §8, §9, §10
• Delivered: 5mg. Dilute and aliquote reference substrate to a concentration of 10 mM in pure DMSO.
as §3, §4, §5, §11, §12
The source holds these as a separate data set.

The subject of assay [10] is SARS-CoV2 WT. As to the kind of experiment: microbe, parasite or virus in culture. As to conditions: Severe acute respiratory syndrome coronavirus 2. It counts as cell-based.

This note sets out measurements from patent EP3925667A1, “SELECTIVE TMPRSS2 INHIBITORS AND MEDICAL USE THEREOF” (priority 2020, dated 2021).

Structures can show the parent of a compound that is named as a salt. Where two headings read alike, the source gives them in different places.

T1 sequence (O15393 whole entry): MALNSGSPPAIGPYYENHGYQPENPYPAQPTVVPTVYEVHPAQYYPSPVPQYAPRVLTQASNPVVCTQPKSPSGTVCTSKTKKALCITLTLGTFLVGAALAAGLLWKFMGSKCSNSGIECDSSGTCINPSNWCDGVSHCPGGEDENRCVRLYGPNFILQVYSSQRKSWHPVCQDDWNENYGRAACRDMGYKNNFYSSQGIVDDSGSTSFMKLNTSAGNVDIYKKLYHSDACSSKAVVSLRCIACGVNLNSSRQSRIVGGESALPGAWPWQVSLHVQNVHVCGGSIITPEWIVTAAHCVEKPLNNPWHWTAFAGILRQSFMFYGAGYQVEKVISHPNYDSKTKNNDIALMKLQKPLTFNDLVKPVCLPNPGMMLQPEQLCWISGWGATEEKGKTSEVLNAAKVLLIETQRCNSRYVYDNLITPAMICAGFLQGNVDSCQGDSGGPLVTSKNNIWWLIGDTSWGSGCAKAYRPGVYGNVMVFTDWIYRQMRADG
T3 sequence (P00742 235-488 limits assumed): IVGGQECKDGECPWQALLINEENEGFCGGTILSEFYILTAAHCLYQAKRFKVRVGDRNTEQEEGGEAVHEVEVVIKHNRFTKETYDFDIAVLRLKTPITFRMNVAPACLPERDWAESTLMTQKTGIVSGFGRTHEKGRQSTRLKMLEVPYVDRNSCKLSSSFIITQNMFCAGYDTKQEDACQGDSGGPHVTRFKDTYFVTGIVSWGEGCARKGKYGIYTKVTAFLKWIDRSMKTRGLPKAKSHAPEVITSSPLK
T3 sequence (P00742 41-179 partner limits assumed): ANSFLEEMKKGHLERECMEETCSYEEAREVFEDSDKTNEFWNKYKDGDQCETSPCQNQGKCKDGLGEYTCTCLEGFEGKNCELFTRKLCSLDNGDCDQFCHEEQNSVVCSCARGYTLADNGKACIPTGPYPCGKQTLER

In general, IC50 refers to the concentration at which inhibition is half-maximal. Read a high IC50 as lower potency. In the case of `CC(=O)N[C@@H](CCCNC(=N)N)C(=O)N[C@@H](CCC(N)=O)C(=O)N[C@@H](CC(C)C)C(=O)N[C@@H](CCCNC(=N)N)C(=O)c1nc2ccccc2s1` [Compound 1, Ac-RQLR-kbt], the IC50 at TMPRSS2 [1] is 1.26 µM; at Recomb. Human Thrombin [2] it was over 100 µM; in the assay on SARS-CoV2 WT [3] it was 11.1 µM; in assay [4], 0.803 µM; in [5], 0.0471 µM.

`CC(=O)N[C@@H](C)C(=O)N[C@@H](CCC(=O)O)C(=O)N[C@@H](CCC(N)=O)C(=O)N[C@@H](CCCNC(=N)N)C(=O)c1nc2ccccc2s1` [Compound 2, Ac-AEQR-kbt]: the IC50 was 1.67 µM against TMPRSS2 [1]; over 100 µM against Recomb. Human Thrombin [2]; 19 µM with SARS-CoV2 WT [3]; 0.47 µM in [4]; 0.991 µM in assay [5].

In the case of `CC(=O)NCC(=O)N[C@@H](CCC(N)=O)C(=O)N[C@@H](CCCNC(=N)N)C(=O)N[C@@H](CCCNC(=N)N)C(=O)c1nc2ccccc2s1` [Compound 3, Ac-GQRR-kbt], the IC50 against TMPRSS2 [1] is 0.332 µM; at Recomb. Human Thrombin [2], over 100 µM; in the assay on SARS-CoV2 WT [3] it was 20.1 µM; in assay [4], 1.3 µM; in assay [5], 22 µM.

Regarding `CC(=O)N[C@@H](CCC(N)=O)C(=O)N[C@@H](CCC(N)=O)C(=O)N[C@H](C(=O)N[C@@H](CCCNC(=N)N)C(=O)c1nc2ccccc2s1)C(C)C` [Compound 4, Ac-QQVR-kbt], the IC50 on TMPRSS2 [1] was 0.5 µM; at Recomb. Human Thrombin [2], over 10 µM; in the assay with SARS-CoV2 WT [3], 58.5 µM; in assay [4] it was 2.05 µM; in assay [5], 1.5 µM.

Regarding `CC(=O)N[C@@H](CCC(=O)O)C(=O)N[C@@H](CCC(N)=O)C(=O)N1CCC[C@H]1C(=O)N[C@@H](CCCNC(=N)N)C(=O)c1nc2ccccc2s1` [Compound 5, Ac-EQPR-kbt], the IC50 was 2.87 µM against TMPRSS2 [1], over 100 µM against Recomb. Human Thrombin [2], 2.1 µM in [4] and over 100 µM in [5].

On to `CC(=O)N[C@@H](CC(N)=O)C(=O)N[C@@H](CCC(=O)O)C(=O)N[C@@H](CCC(N)=O)C(=O)N[C@@H](CCCNC(=N)N)C(=O)c1nc2ccccc2s1` [Compound 6, Ac-NEQR-kbt], for which the IC50 at TMPRSS2 [1] was 1.19 µM; against Recomb. Human Thrombin [2], over 100 µM; with SARS-CoV2 WT [3], 34.2 µM; in [4] it was 1.4 µM; in assay [5], 8.14 µM.

With `CC(=O)N[C@@H](CCCNC(=N)N)C(=O)N[C@@H](CCC(=O)O)C(=O)N[C@@H](CS)C(=O)N[C@@H](CCCNC(=N)N)C(=O)c1nc2ccccc2s1` [Compound 7, Ac-RECR-kbt], the IC50 was 0.835 µM at TMPRSS2 [1], over 100 µM at Recomb. Human Thrombin [2] and 0.611 µM in assay [5].

For `CC(=O)N[C@@H](CCCCN)C(=O)N[C@@H](CCC(N)=O)C(=O)N[C@@H](CC(C)C)C(=O)N[C@@H](CCCNC(=N)N)C(=O)c1nc2ccccc2s1` [Ref.1, Ac-KQLR-kbt, reference compound], the IC50 against TMPRSS2 [1] is 3.43 µM; against Recomb. Human Thrombin [2], over 100 µM; in the assay on SARS-CoV2 WT [3] it was 15.6 µM; in [4], 3.01 µM; in [5], 0.338 µM.

At TMPRSS2 [6], `[H]/N=C(/N)c1ccc(NCc2nc3cc(C(=O)N(CCC(=O)O)c4ccccn4)ccc3n2C)cc1` [Ref.2, Dabigatran] gave an IC50 of over 100 µM.

On to `CC(=O)N[C@@H](CC(C)C)C(=O)N[C@@H](CC(C)C)C(=O)N[C@H](C=O)CCCNC(=N)N` [Ref.3, Leupeptin], for which the IC50 is over 100 µM at Recomb. Human Thrombin [7], 36.8 µM in assay [8], over 13.9 µM in assay [9] and over 27.6 µM at TMPRSS2 [6].

Consider `N=C(N)c1ccccc1` [Ref.4, Benzamidine], for which the IC50 in assay [8] is over 1000 µM; in assay [9], over 100 µM; at TMPRSS2 [6] it was over 100 µM.

For the compound `CN(C)C(=O)COC(=O)Cc1ccc(OC(=O)c2ccc(NC(=N)N)cc2)cc1` [Ref.5, Camostat mesylate], the results for the IC50 (in [8]; in [9]; with SARS-CoV2 WT [10]) were 0.505 µM, 5.3 µM and 32.4 µM, respectively.

Take `N=C(N)NCCC[C@H](NC(=O)[C@@H]1CCCN1C(=O)[C@H](N)Cc1ccccc1)C(=O)CCl` [Ref.6, PPack]: the IC50 is 0.000268 µM on Recomb. Human Thrombin [7], 0.0745 µM in assay [9] and over 100 µM against TMPRSS2 [6].

In the case of `N=C(N)c1ccc(CNC(=O)[C@@H]2CCN2C(=O)[C@H](NCC(=O)O)C2CCCCC2)cc1` [Ref.7, Melagatran], in [9], the IC50 is 0.216 µM.

`N=C(N)Nc1ccc(C(=O)Oc2ccc(CC(=O)O)cc2)cc1` [Ref.8, FOY 251]: the results for the concentration for half-maximal inhibition (IC50) (against Recomb. Human Thrombin [7]; in [9]) were over 100 µM and 21.5 µM, respectively.

On to `CC[C@H](C)[C@H](NC(=O)[C@H](C)NC(=O)[C@H](CCC(=O)O)NC(=O)[C@H](CCC(=O)O)NC(=O)[C@H](CC(C)C)NC(=O)[C@H](CCCCN)NC(=O)[C@H](CCCCN)NC(=O)[C@H](CCSC)NC(=O)[C@H](CCC(=O)O)NC(=O)[C@H](Cc1ccc(O)cc1)NC(=O)[C@H](CCC(=O)O)NC(=O)[C@H](CC(C)C)NC(=O)[C@H](CC(=O)O)NC(=O)[C@H](CC(C)C)NC(=O)[C@H](Cc1ccccc1)NC(=O)[C@@H](NC(=O)[C@@H](NC(=O)[C@H](CC(N)=O)NC(=O)[C@@H](NC(=O)[C@H](CCC(N)=O)NC(=O)[C@H](CC(=O)O)NC(=O)[C@H](CC(C)C)NC(=O)[C@@H](N)CO)[C@@H](C)CC)C(C)C)[C@@H](C)O)C(=O)N[C@@H](CCCCN)C(=O)N[C@@H](CCCCN)C(=O)N[C@@H](CC(C)C)C(=O)N[C@@H](CCC(=O)O)C(=O)N[C@@H](CCC(=O)O)C(=O)N[C@@H](CO)C(=O)N[C@@H](Cc1ccc(O)cc1)C(=O)N[C@H](C(=O)N[C@@H](CC(=O)O)C(=O)N[C@@H](CC(C)C)C(=O)N[C@@H](CCCCN)C(=O)N[C@@H](CCC(=O)O)C(=O)N[C@@H](CC(C)C)C(=O)O)[C@@H](C)CC` [Ref.9, EK1, reference compound], for which, in assay [4], the IC50 came to 0.228 µM.
